Laboratory results taken from patent US10934296B2, “4-imidazopyridazin-1-yl-benzamides as Btk inhibitors” (Merck Sharp & Dohme B.V., priority 2011, dated 2021).

How the values were obtained:
Lyn enzyme = Lyn enzyme (Homo sapiens (Human), UniProt P07948); assay: Lyn enzyme activity, IMAP fluorescence polarization assay; conditions: 60 min pre-incubation, 2 μM ATP, bin bounds in μM
Lck enzyme = Lck enzyme (Homo sapiens (Human), UniProt P06239); assay: Lck enzyme activity, IMAP fluorescence polarization assay; conditions: 60 min pre-incubation, 6 μM ATP, bin bounds in μM
Chain of Lck enzyme (P06239 whole entry): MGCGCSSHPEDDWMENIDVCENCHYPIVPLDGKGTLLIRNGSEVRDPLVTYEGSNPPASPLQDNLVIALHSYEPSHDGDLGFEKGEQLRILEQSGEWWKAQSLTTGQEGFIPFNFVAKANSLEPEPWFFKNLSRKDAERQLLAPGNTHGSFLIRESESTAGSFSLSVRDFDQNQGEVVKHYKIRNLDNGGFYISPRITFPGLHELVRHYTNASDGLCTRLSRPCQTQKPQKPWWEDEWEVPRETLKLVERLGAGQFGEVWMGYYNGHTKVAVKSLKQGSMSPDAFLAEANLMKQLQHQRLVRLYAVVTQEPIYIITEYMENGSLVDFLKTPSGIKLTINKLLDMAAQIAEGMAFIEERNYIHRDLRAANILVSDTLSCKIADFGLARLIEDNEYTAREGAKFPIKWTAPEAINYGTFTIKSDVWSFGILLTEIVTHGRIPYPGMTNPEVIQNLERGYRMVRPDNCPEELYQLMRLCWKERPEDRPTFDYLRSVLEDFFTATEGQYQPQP

Btk enzyme (His-Btk) = Btk enzyme (His-Btk) (Homo sapiens (Human), UniProt Q06187); assay: Btk enzyme activity, IMAP fluorescence polarization assay; conditions: 60 min pre-incubation, 5 μM ATP, bin bounds in nM
Chain of Btk enzyme (His-Btk) (Q06187 whole entry): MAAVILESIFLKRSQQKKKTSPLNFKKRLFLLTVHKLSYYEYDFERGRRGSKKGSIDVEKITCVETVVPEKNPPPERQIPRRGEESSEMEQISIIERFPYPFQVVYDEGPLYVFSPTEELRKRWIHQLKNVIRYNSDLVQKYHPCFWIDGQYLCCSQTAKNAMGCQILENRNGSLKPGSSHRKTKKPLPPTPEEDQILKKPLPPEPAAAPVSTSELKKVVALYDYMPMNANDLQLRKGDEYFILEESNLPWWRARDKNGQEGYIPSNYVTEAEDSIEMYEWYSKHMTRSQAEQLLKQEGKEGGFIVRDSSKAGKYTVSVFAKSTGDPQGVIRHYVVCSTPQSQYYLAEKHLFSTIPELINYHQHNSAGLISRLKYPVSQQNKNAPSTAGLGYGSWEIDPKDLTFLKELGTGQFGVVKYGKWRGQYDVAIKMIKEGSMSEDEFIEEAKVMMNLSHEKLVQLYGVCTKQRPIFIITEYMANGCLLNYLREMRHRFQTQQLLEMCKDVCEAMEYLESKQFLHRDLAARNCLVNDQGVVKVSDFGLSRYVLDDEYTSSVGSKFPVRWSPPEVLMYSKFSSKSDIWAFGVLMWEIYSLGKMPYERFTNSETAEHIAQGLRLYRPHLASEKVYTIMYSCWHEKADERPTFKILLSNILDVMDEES

Chain of Lyn enzyme (P07948 whole entry): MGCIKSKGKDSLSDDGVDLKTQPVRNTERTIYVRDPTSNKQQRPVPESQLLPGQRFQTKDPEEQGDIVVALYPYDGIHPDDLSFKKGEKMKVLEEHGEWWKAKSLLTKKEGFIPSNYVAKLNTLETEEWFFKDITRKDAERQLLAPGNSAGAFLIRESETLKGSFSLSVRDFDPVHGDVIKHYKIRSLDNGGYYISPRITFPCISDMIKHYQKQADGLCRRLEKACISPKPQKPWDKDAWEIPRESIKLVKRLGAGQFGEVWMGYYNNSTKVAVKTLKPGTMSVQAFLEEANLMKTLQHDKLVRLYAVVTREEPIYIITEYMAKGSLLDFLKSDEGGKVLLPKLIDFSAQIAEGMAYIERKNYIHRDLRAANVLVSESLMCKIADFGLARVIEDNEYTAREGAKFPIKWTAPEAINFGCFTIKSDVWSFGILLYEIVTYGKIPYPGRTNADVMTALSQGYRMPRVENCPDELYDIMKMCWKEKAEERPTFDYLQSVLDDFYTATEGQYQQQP

Row | EC50 Lyn activity values (Lyn enzyme) | EC50 Lck activity values (Lck enzyme) | EC50 Btk activity values (Btk enzyme (His-Btk)) | SMILES
1 | <1 µM | <1 µM | <100 nM | CC#CC(=O)N1CCC[C@H]1c1nc(-c2ccc(C(=O)Nc3nccs3)cc2)c2c(N)nccn12 [Example 60, (S)-4-(8-amino-3-(1-but-2-ynoylpyrrolidin-2-yl)imidazo[1,5-a]pyrazin-1-yl)-N-(thiazol-2-yl)benzamide]
2 | <1 µM | <1 µM | – | C=CC(=O)N1CCC[C@H]1c1nc(-c2ccc(C(=O)Nc3cc(C)ccn3)cc2)c2c(N)nccn12 [Example 124, (S)-4-(3-(1-acryloylpyrrolidin-2-yl)-8-aminoimidazo[1,5-a]pyrazin-1-yl)-N-(4-methylpyridin-2-yl)benzamide]
